{"source": "PubChem BioAssay (NCI)", "assay_in_all_cases": "NCI-60 cell line screen, 48 h", "key": {"EKVX NSCLC": {"test_system": "EKVX NSCLC"}, "SF-295 CNS": {"test_system": "SF-295 CNS"}, "SK-OV-3 ovarian": {"test_system": "SK-OV-3 ovarian"}, "CAKI-1 renal": {"test_system": "CAKI-1 renal"}, "ACHN renal": {"test_system": "ACHN renal"}, "SW-620 colon": {"test_system": "SW-620 colon"}, "SNB-19 CNS": {"test_system": "SNB-19 CNS"}, "OVCAR-4 ovarian": {"test_system": "OVCAR-4 ovarian"}, "TK-10 renal": {"test_system": "TK-10 renal"}, "OVCAR-5 ovarian": {"test_system": "OVCAR-5 ovarian"}, "SF-539 CNS": {"test_system": "SF-539 CNS"}, "IGROV1 ovarian": {"test_system": "IGROV1 ovarian"}, "COLO 205 colon": {"test_system": "COLO 205 colon"}, "NCI-H460 lung": {"test_system": "NCI-H460 lung"}, "SNB-78 CNS": {"test_system": "SNB-78 CNS"}, "OVCAR-3 ovarian": {"test_system": "OVCAR-3 ovarian"}, "CCRF-CEM leukemia": {"test_system": "CCRF-CEM leukemia"}, "K-562 leukemia": {"test_system": "K-562 leukemia"}, "HOP-18 NSCLC": {"test_system": "HOP-18 NSCLC"}, "UACC-257 melanoma": {"test_system": "UACC-257 melanoma"}, "HOP-92 NSCLC": {"test_system": "HOP-92 NSCLC"}, "SK-MEL-2 melanoma": {"test_system": "SK-MEL-2 melanoma"}, "SK-MEL-28 melanoma": {"test_system": "SK-MEL-28 melanoma"}, "UO-31 renal": {"test_system": "UO-31 renal"}, "HOP-62 NSCLC": {"test_system": "HOP-62 NSCLC"}, "HL-60(TB) leukemia": {"test_system": "HL-60(TB) leukemia"}, "NCI-H226 lung": {"test_system": "NCI-H226 lung"}, "SK-MEL-5 melanoma": {"test_system": "SK-MEL-5 melanoma"}, "KM20L2 colon": {"test_system": "KM20L2 colon"}, "A498 renal": {"test_system": "A498 renal"}, "SNB-75 CNS": {"test_system": "SNB-75 CNS"}, "M19-MEL melanoma": {"test_system": "M19-MEL melanoma"}, "SF-268 CNS": {"test_system": "SF-268 CNS"}, "U251 CNS": {"test_system": "U251 CNS"}, "DLD-1 colon": {"test_system": "DLD-1 colon"}, "DMS 273 small cell lung": {"test_system": "DMS 273 small cell lung"}, "A549 NSCLC": {"test_system": "A549 NSCLC"}, "KM12 colon": {"test_system": "KM12 colon"}, "HT29 colon": {"test_system": "HT29 colon"}, "RXF 393 renal": {"test_system": "RXF 393 renal"}, "LXFL 529 NSCLC": {"test_system": "LXFL 529 NSCLC"}, "OVCAR-8 ovarian": {"test_system": "OVCAR-8 ovarian"}, "M14 melanoma": {"test_system": "M14 melanoma"}, "786-0 renal": {"test_system": "786-0 renal"}, "SR leukemia": {"test_system": "SR leukemia"}, "UACC-62 melanoma": {"test_system": "UACC-62 melanoma"}, "NCI-H23 lung": {"test_system": "NCI-H23 lung"}, "SN12C renal": {"test_system": "SN12C renal"}, "MALME-3M melanoma": {"test_system": "MALME-3M melanoma"}, "HCC-2998 colon": {"test_system": "HCC-2998 colon"}, "NCI-H522 lung": {"test_system": "NCI-H522 lung"}, "HCT-15 colon": {"test_system": "HCT-15 colon"}, "LOX IMVI melanoma": {"test_system": "LOX IMVI melanoma"}, "HCT-116 colon": {"test_system": "HCT-116 colon"}}, "note": "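96-well plates; 48 h exposure; 5 concentrations. Endpoints by linear interpolation between flanking doses. Not reached: highest tested concentration assigned. At the TGI there is no net growth.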"}
{"compound": "Nc1nc[n+](Cc2ccccc2)c2ncn(Cc3ccccc3)c12", "values": [{"measurement": "TGI", "setting": "EKVX NSCLC", "result": "> 100", "unit": "µM"}, {"measurement": "TGI", "setting": "SF-295 CNS", "result": "> 100", "unit": "µM"}, {"measurement": "TGI", "setting": "SK-OV-3 ovarian", "result": "> 100", "unit": "µM"}, {"measurement": "TGI", "setting": "CAKI-1 renal", "result": "> 100", "unit": "µM"}, {"measurement": "TGI", "setting": "ACHN renal", "result": "> 100", "unit": "µM"}, {"measurement": "TGI", "setting": "SW-620 colon", "result": "> 100", "unit": "µM"}, {"measurement": "TGI", "setting": "SNB-19 CNS", "result": "> 100", "unit": "µM"}, {"measurement": "TGI", "setting": "OVCAR-4 ovarian", "result": "> 100", "unit": "µM"}, {"measurement": "TGI", "setting": "TK-10 renal", "result": "> 100", "unit": "µM"}, {"measurement": "TGI", "setting": "OVCAR-5 ovarian", "result": "> 100", "unit": "µM"}, {"measurement": "TGI", "setting": "SF-539 CNS", "result": "> 100", "unit": "µM"}, {"measurement": "TGI", "setting": "IGROV1 ovarian", "result": "> 100", "unit": "µM"}, {"measurement": "TGI", "setting": "COLO 205 colon", "result": 82.8, "unit": "µM"}, {"measurement": "TGI", "setting": "NCI-H460 lung", "result": "> 100", "unit": "µM"}, {"measurement": "TGI", "setting": "SNB-78 CNS", "result": "> 100", "unit": "µM"}, {"measurement": "TGI", "setting": "OVCAR-3 ovarian", "result": "> 100", "unit": "µM"}, {"measurement": "TGI", "setting": "CCRF-CEM leukemia", "result": "> 100", "unit": "µM"}, {"measurement": "TGI", "setting": "K-562 leukemia", "result": "> 100", "unit": "µM"}, {"measurement": "TGI", "setting": "HOP-18 NSCLC", "result": "> 100", "unit": "µM"}, {"measurement": "TGI", "setting": "UACC-257 melanoma", "result": "> 100", "unit": "µM"}, {"measurement": "TGI", "setting": "HOP-92 NSCLC", "result": 96.6, "unit": "µM"}, {"measurement": "TGI", "setting": "SK-MEL-2 melanoma", "result": "> 100", "unit": "µM"}, {"measurement": "TGI", "setting": "SK-MEL-28 melanoma", "result": "> 100", "unit": "µM"}, {"measurement": "TGI", "setting": "UO-31 renal", "result": "> 100", "unit": "µM"}, {"measurement": "TGI", "setting": "HOP-62 NSCLC", "result": "> 100", "unit": "µM"}, {"measurement": "TGI", "setting": "HL-60(TB) leukemia", "result": "> 100", "unit": "µM"}, {"measurement": "TGI", "setting": "NCI-H226 lung", "result": "> 100", "unit": "µM"}, {"measurement": "TGI", "setting": "SK-MEL-5 melanoma", "result": "> 100", "unit": "µM"}, {"measurement": "TGI", "setting": "KM20L2 colon", "result": "> 100", "unit": "µM"}, {"measurement": "TGI", "setting": "A498 renal", "result": "> 100", "unit": "µM"}, {"measurement": "TGI", "setting": "SNB-75 CNS", "result": "> 100", "unit": "µM"}, {"measurement": "TGI", "setting": "M19-MEL melanoma", "result": "> 100", "unit": "µM"}, {"measurement": "TGI", "setting": "SF-268 CNS", "result": "> 100", "unit": "µM"}, {"measurement": "TGI", "setting": "U251 CNS", "result": "> 100", "unit": "µM"}, {"measurement": "TGI", "setting": "DLD-1 colon", "result": "> 100", "unit": "µM"}, {"measurement": "TGI", "setting": "DMS 273 small cell lung", "result": "> 100", "unit": "µM"}, {"measurement": "TGI", "setting": "A549 NSCLC", "result": "> 100", "unit": "µM"}, {"measurement": "TGI", "setting": "KM12 colon", "result": "> 100", "unit": "µM"}, {"measurement": "TGI", "setting": "HT29 colon", "result": "> 100", "unit": "µM"}, {"measurement": "TGI", "setting": "RXF 393 renal", "result": 71, "unit": "µM"}, {"measurement": "TGI", "setting": "LXFL 529 NSCLC", "result": "> 100", "unit": "µM"}, {"measurement": "TGI", "setting": "OVCAR-8 ovarian", "result": "> 100", "unit": "µM"}, {"measurement": "TGI", "setting": "M14 melanoma", "result": 86.3, "unit": "µM"}, {"measurement": "TGI", "setting": "786-0 renal", "result": "> 100", "unit": "µM"}, {"measurement": "TGI", "setting": "SR leukemia", "result": "> 100", "unit": "µM"}, {"measurement": "TGI", "setting": "UACC-62 melanoma", "result": "> 100", "unit": "µM"}, {"measurement": "TGI", "setting": "NCI-H23 lung", "result": "> 100", "unit": "µM"}, {"measurement": "TGI", "setting": "SN12C renal", "result": "> 100", "unit": "µM"}, {"measurement": "TGI", "setting": "MALME-3M melanoma", "result": "> 100", "unit": "µM"}, {"measurement": "TGI", "setting": "HCC-2998 colon", "result": 60.4, "unit": "µM"}, {"measurement": "TGI", "setting": "NCI-H522 lung", "result": "> 100", "unit": "µM"}, {"measurement": "TGI", "setting": "HCT-15 colon", "result": "> 100", "unit": "µM"}, {"measurement": "TGI", "setting": "LOX IMVI melanoma", "result": "> 100", "unit": "µM"}, {"measurement": "TGI", "setting": "HCT-116 colon", "result": "> 100", "unit": "µM"}]}
